US8592370B2, “Combination of insulin with triazine derivatives” (Poxel S.A.S., priority 2008, dated 2013)

Tests used:
[1] = system: hyperglycemic and hypoinsulinemic Type 1 rat models (Streptozotocin); experiment: Oral glucose tolerance test (OGTT), plasma glucose after 36 days of treatment; type: in vivo; conditions: insulin alone
Procedure: (§1) The study was performed in hyperglycemic and hypoinsulinemic Type 1 rat models obtained by injection of high dose of Streptozotocin (STZ). Male Wistar rats (Charles River) were treated with STZ at 62.5 mg/kg IP. Rats were screened for baseline glucose levels three days after STZ injection. The animals with glucose levels below 35-40 mmol/l were excluded from this study. After selection, pellets of insulin were subcutaneously implanted (1+½ implants) at day 3. The release rate for each implant was 2 U per 24 h. In these experimental conditions each rat was infused with 3 U per 24 h of insulin for 40 days approximately (Limplant LINSHIN CANADA). 5,6-dihydro-4-dimethylamino-2-imino-6-methyl-1,3,5-triazine was orally administered at two doses, 75 and 150 mg/kg b.i.d., 10 days after induction of diabetes. Further experimental details are known to the skilled artisan, e.g. by the disclosure of WO 2003/092726, and can be easily modified as a matter of routine.
The determination how quickly administered glucose is cleared form the blood was conducted by means of a glucose tolerance test. The glucose was orally given; so the common test was technically an oral glucose tolerance test (OGTT), which is well-known to the skilled artisan. The laboratory animal was fasting for 18 hours before it was administered a glucose solution. Blood was drawn at intervals (cf. Table 3) for measurement of glucose (blood sugar), and additionally insulin levels were measured to detect the degree of IR or deficiency, respectively. For diabetes screening, the most important sample is the 2 hour sample, whose blood sugar value is enhanced at mammals with diminished insulin secretion or IR.

[2] = system: hyperglycemic and hypoinsulinemic Type 1 rat models (Streptozotocin); experiment: Fasting plasma glucose in STZ Type 1 rat model, insulin pellets with or without EMD; type: in vivo
Procedure: as §1

Compound	OGTT plasma glucose ([1]; 0 min) [mmol/L]	OGTT plasma glucose ([1]; 10 min) [mmol/L]	OGTT plasma glucose ([1]; 20 min) [mmol/L]	OGTT plasma glucose ([1]; 30 min) [mmol/L]	OGTT plasma glucose ([1]; 45 min) [mmol/L]	OGTT plasma glucose ([1]; 60 min) [mmol/L]	OGTT plasma glucose ([1]; 90 min) [mmol/L]	OGTT plasma glucose ([1]; 120 min) [mmol/L]	Fasting plasma glucose ([2]; insulin pellets 3 U per 24 h alone, day 0 (before treatment)) [mmol/L]	Fasting plasma glucose ([2]; insulin pellets 3 U per 24 h alone, day 8) [mmol/L]	Fasting plasma glucose ([2]; insulin pellets 3 U per 24 h alone, day 15) [mmol/L]	Fasting plasma glucose ([2]; insulin pellets 3 U per 24 h alone, day 22) [mmol/L]	Fasting plasma glucose ([2]; insulin pellets 3 U per 24 h alone, day 36) [mmol/L]	Fasting plasma glucose ([2]; insulin pellets 3 U per 24 h alone, day 36, listed as insulin pellets) [mmol/L]	Fasting plasma glucose ([2]; EMD 75 mg/kg b.i.d. oral + insulin pellets 3 U per 24 h, day 36) [mmol/L]	Fasting plasma glucose ([2]; EMD 150 mg/kg b.i.d. oral + insulin pellets 3 U per 24 h, day 36) [mmol/L]
control + insulin: subcutaneously implanted insulin pellets releasing 3 U per 24 h (Limplant LINSHIN CANADA); insulin alone group	21.46	22.73	26.98	27.83	28.04	25.59	20.35	16.91	33.20	17.22	11.25	16.66	21.46	21.46 ± 3.1	–	–
CC1NC(=N)N=C(N(C)C)N1 (stereo not shown) [EMD, 5,6-dihydro-4-dimethylamino-2-imino-6-methyl-1,3,5-triazine]	–	–	–	–	–	–	–	–	–	–	–	–	–	–	18.86 ± 2.77	14.85 ± 2.03
